Assay results from the NIST ThermoML archive (doi:10.1021/je0255628).
Values joined by “and” are separate entries in the source; they are usually repeats but may differ in a detail not shown here. Identical values can stand only once. ± gives the expanded uncertainty stated by the source.

Details: 308.15 K; Liquid

Row | vapor or sublimation pressure [kPa] | SMILES
1 | 1.303 ± 0.16 | CCOCCO [2-ethoxyethan-1-ol]
2 | 114.88 ± 0.35 | COC=O [methyl methanoate]

Same assay, conditions: 313.15 K; Liquid

Row | SMILES | vapor or sublimation pressure
3 | CCOCCO [2-ethoxyethan-1-ol] | 1.864 ± 0.16 kPa and 1.803 ± 0.16 kPa and 1.829 ± 0.16 kPa
4 | CCOC(C)=O [ethyl acetate] | 25.08 ± 0.2 kPa
5 | CCOC(=O)CC [ethyl propanoate] | 10.6 ± 0.17 kPa

The next lines start with the values.

Row | vapor or sublimation pressure | SMILES
6 | 53.81 ± 0.24 kPa | COC(C)=O [methyl ethanoate]
7 | 9.586 ± 0.17 kPa | CCCOC(C)=O [propyl ethanoate]
